Assay results reported in patent US20100267561A1, “HERBICIDAL PYRIDAZINONE DERIVATIVES” (priority 2007, published 2010).

What was measured:
Assay in all cases: Test B pre-/postemergence plant response
Format in all cases: in vivo
kochia (Kochia scoparia) = test system: kochia (Kochia scoparia)
How it was run: (§1)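 Visual scoring from 0 (no effect) to 100 (complete control) against untreated controls was done 13 to 15 days after greenhouse treatment. Chemicals were formulated in a surfactant-containing non-phytotoxic solvent and applied to soil preemergence or to 1- to 4-leaf (2-18 cm) plants postemergence.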

[1] = test system: green foxtail (Setaria viridis)
How it was run: as §1

[2] = test system: goosegrass (Eleusine indica)
How it was run: as §1

[3] = test system: Italian ryegrass (Lolium multiflorum)
How it was run: as §1

[4] = test system: yellow nutsedge (Cyperus esculentus)
How it was run: as §1

[5] = test system: pigweed (Amaranthus retroflexus)
How it was run: as §1

[6] = test system: giant foxtail (Setaria faberii)
How it was run: as §1

[7] = test system: common (oilseed) sunflower (Helianthus annuus); conditions: Preemergence
How it was run: as §1

[8] = test system: common ragweed (Ambrosia elation)
How it was run: as §1

corn (Zea mays) = test system: corn (Zea mays)
How it was run: as §1

[9] = test system: surinam grass (Brachiaria decumbens)
How it was run: as §1

[10] = test system: johnsongrass (Sorghum halepense)
How it was run: as §1

[11] = test system: eastern black (E.B.) nightshade (Solanum ptycanthum); conditions: Preemergence
How it was run: as §1

[12] = Postemergence, 16 g ai/ha, scale 0 to 100
[13] = Postemergence, 31 g ai/ha, scale 0 to 100, 0 no effect, 100 complete control
[14] = Postemergence, 62 g ai/ha, scale 0 to 100
[15] = Postemergence, 125 g ai/ha, scale 0 to 100
[16] = Preemergence, 16 g ai/ha, scale 0 to 100 (0 no effect, 100 complete control)
[17] = Preemergence, 31 g ai/ha, 0 to 100 scale, 0 no effect, 100 complete control
[18] = Preemergence, 62 g ai/ha, scale 0 to 100
[19] = Preemergence, 125 g ai/ha, scale 0 to 100
[20] = 16 g ai/ha, scale 0 to 100 (0 no effect, 100 complete control)
[21] = 31 g ai/ha, 0 to 100 scale, 0 no effect, 100 complete control
[22] = Postemergence, 250 g ai/ha, scale 0 to 100
[23] = Preemergence, 250 g ai/ha, scale 0 to 100

CCc1cc(-c2ccc(C(F)(F)F)cc2)nn1-c1c(OC(=O)OC(C)C)cnn(C)c1=O [Compound 12]
98: Plant response rating, Goosegrass [2, 17]
5: Plant response rating, Pigweed [5, 14]
70: Plant response rating, Corn (corn (Zea mays); [16]) | Plant response rating, Johnsongrass [10, 16]
50: Plant response rating, Pigweed [5, 15] | Plant response rating, Nightshade, E. B. ([11]; 62 g ai/ha, scale 0 to 100)
75: Plant response rating, Corn (corn (Zea mays); [17])
95: Plant response rating, Ryegrass, Italian [3, 17] | Plant response rating, Corn (corn (Zea mays); [18]) | Plant response rating, Corn (corn (Zea mays); [19]) | Plant response rating, Johnsongrass [10, 17]
85: Plant response rating, Foxtail, Green [1, 12] | Plant response rating, Nightshade, E. B. ([11]; 125 g ai/ha, scale 0 to 100)
100: Plant response rating, Foxtail, Green [1, 13] | Plant response rating, Foxtail, Green [1, 14] | Plant response rating, Foxtail, Green [1, 15] | Plant response rating, Foxtail, Green [1, 16] | Plant response rating, Foxtail, Green [1, 17] | Plant response rating, Foxtail, Green [1, 18] | Plant response rating, Foxtail, Green [1, 19] | Plant response rating, Goosegrass [2, 12] | Plant response rating, Goosegrass [2, 13] | Plant response rating, Goosegrass [2, 14] | Plant response rating, Goosegrass [2, 15] | Plant response rating, Goosegrass [2, 18] | Plant response rating, Goosegrass [2, 19] | Plant response rating, Ryegrass, Italian [3, 12] | Plant response rating, Ryegrass, Italian [3, 13] | Plant response rating, Ryegrass, Italian [3, 14] | Plant response rating, Ryegrass, Italian [3, 15] | Plant response rating, Ryegrass, Italian [3, 18] | Plant response rating, Ryegrass, Italian [3, 19] | Plant response rating, Foxtail, Giant [6, 12] | Plant response rating, Foxtail, Giant [6, 13] | Plant response rating, Foxtail, Giant [6, 14] | Plant response rating, Foxtail, Giant [6, 15] | Plant response rating, Foxtail, Giant [6, 16] | Plant response rating, Foxtail, Giant [6, 17] | Plant response rating, Foxtail, Giant [6, 18] | Plant response rating, Foxtail, Giant [6, 19] | Plant response rating, Corn (corn (Zea mays); [12]) | Plant response rating, Corn (corn (Zea mays); [13]) | Plant response rating, Corn (corn (Zea mays); [14]) | Plant response rating, Corn (corn (Zea mays); [15]) | Plant response rating, Surinam Grass [9, 12] | Plant response rating, Surinam Grass [9, 13] | Plant response rating, Surinam Grass [9, 14] | Plant response rating, Surinam Grass [9, 15] | Plant response rating, Surinam Grass [9, 16] | Plant response rating, Surinam Grass [9, 17] | Plant response rating, Surinam Grass [9, 18] | Plant response rating, Surinam Grass [9, 19] | Plant response rating, Johnsongrass [10, 12] | Plant response rating, Johnsongrass [10, 13] | Plant response rating, Johnsongrass [10, 14] | Plant response rating, Johnsongrass [10, 15] | Plant response rating, Johnsongrass [10, 18] | Plant response rating, Johnsongrass [10, 19]
40: Plant response rating, Goosegrass [2, 16]
0: Plant response rating, Kochia (kochia (Kochia scoparia); [12]) | Plant response rating, Kochia (kochia (Kochia scoparia); [13]) | Plant response rating, Kochia (kochia (Kochia scoparia); [14]) | Plant response rating, Kochia (kochia (Kochia scoparia); [15]) | Plant response rating, Kochia (kochia (Kochia scoparia); [16]) | Plant response rating, Kochia (kochia (Kochia scoparia); [17]) | Plant response rating, Kochia (kochia (Kochia scoparia); [18]) | Plant response rating, Kochia (kochia (Kochia scoparia); [19]) | Plant response rating, Nutsedge, Yellow [4, 12] | Plant response rating, Nutsedge, Yellow [4, 13] | Plant response rating, Nutsedge, Yellow [4, 14] | Plant response rating, Nutsedge, Yellow [4, 15] | Plant response rating, Nutsedge, Yellow [4, 16] | Plant response rating, Nutsedge, Yellow [4, 17] | Plant response rating, Nutsedge, Yellow [4, 18] | Plant response rating, Nutsedge, Yellow [4, 19] | Plant response rating, Pigweed [5, 12] | Plant response rating, Pigweed [5, 13] | Plant response rating, Sunflower [7, 20] | Plant response rating, Sunflower [7, 21] | Plant response rating, Sunflower ([7]; 62 g ai/ha, scale 0 to 100) | Plant response rating, Sunflower ([7]; 125 g ai/ha, scale 0 to 100) | Plant response rating, Ragweed [8, 12] | Plant response rating, Ragweed [8, 13] | Plant response rating, Ragweed [8, 14] | Plant response rating, Ragweed [8, 15] | Plant response rating, Ragweed [8, 16] | Plant response rating, Ragweed [8, 17] | Plant response rating, Ragweed [8, 18] | Plant response rating, Ragweed [8, 19] | Plant response rating, Nightshade, E. B. [11, 20] | Plant response rating, Nightshade, E. B. [11, 21]
90: Plant response rating, Ryegrass, Italian [3, 16]

Cc1cc(-c2ccc(Br)cc2)nn1-c1c(OC(=O)C2CC2)cnn(C)c1=O [Compound 5]
100: Plant response rating, Foxtail, Green [1, 14] | Plant response rating, Foxtail, Green [1, 15] | Plant response rating, Foxtail, Green [1, 22] | Plant response rating, Foxtail, Green [1, 18] | Plant response rating, Foxtail, Green [1, 19] | Plant response rating, Foxtail, Green [1, 23] | Plant response rating, Goosegrass [2, 15] | Plant response rating, Goosegrass [2, 22] | Plant response rating, Goosegrass [2, 18] | Plant response rating, Goosegrass [2, 19] | Plant response rating, Goosegrass [2, 23] | Plant response rating, Ryegrass, Italian [3, 13] | Plant response rating, Ryegrass, Italian [3, 14] | Plant response rating, Ryegrass, Italian [3, 15] | Plant response rating, Ryegrass, Italian [3, 22] | Plant response rating, Ryegrass, Italian [3, 17] | Plant response rating, Ryegrass, Italian [3, 18] | Plant response rating, Ryegrass, Italian [3, 19] | Plant response rating, Ryegrass, Italian [3, 23] | Plant response rating, Pigweed [5, 23] | Plant response rating, Foxtail, Giant [6, 13] | Plant response rating, Foxtail, Giant [6, 14] | Plant response rating, Foxtail, Giant [6, 15] | Plant response rating, Foxtail, Giant [6, 22] | Plant response rating, Foxtail, Giant [6, 18] | Plant response rating, Foxtail, Giant [6, 19] | Plant response rating, Foxtail, Giant [6, 23] | Plant response rating, Corn (corn (Zea mays); [14]) | Plant response rating, Corn (corn (Zea mays); [15]) | Plant response rating, Corn (corn (Zea mays); [22]) | Plant response rating, Corn (corn (Zea mays); [23]) | Plant response rating, Surinam Grass [9, 13] | Plant response rating, Surinam Grass [9, 14] | Plant response rating, Surinam Grass [9, 15] | Plant response rating, Surinam Grass [9, 22] | Plant response rating, Surinam Grass [9, 17] | Plant response rating, Surinam Grass [9, 18] | Plant response rating, Surinam Grass [9, 19] | Plant response rating, Surinam Grass [9, 23] | Plant response rating, Johnsongrass [10, 18] | Plant response rating, Johnsongrass [10, 19] | Plant response rating, Johnsongrass [10, 23] | Plant response rating, Nightshade, E. B. ([11]; 250 g ai/ha, scale 0 to 100)
98: Plant response rating, Foxtail, Green [1, 17] | Plant response rating, Foxtail, Giant [6, 17] | Plant response rating, Corn (corn (Zea mays); [19])
85: Plant response rating, Johnsongrass [10, 15]
10: Plant response rating, Ragweed [8, 23]
60: Plant response rating, Kochia (kochia (Kochia scoparia); [23]) | Plant response rating, Nutsedge, Yellow [4, 15] | Plant response rating, Ragweed [8, 15]
80: Plant response rating, Pigweed [5, 19]
70: Plant response rating, Kochia (kochia (Kochia scoparia); [22])
45: Plant response rating, Pigweed [5, 15] | Plant response rating, Pigweed [5, 22]
65: Plant response rating, Ragweed [8, 22]
90: Plant response rating, Corn (corn (Zea mays); [13]) | Plant response rating, Johnsongrass [10, 22]
75: Plant response rating, Goosegrass [2, 17]
95: Plant response rating, Foxtail, Green [1, 13] | Plant response rating, Goosegrass [2, 13] | Plant response rating, Goosegrass [2, 14] | Plant response rating, Corn (corn (Zea mays); [17]) | Plant response rating, Corn (corn (Zea mays); [18])
0: Plant response rating, Kochia (kochia (Kochia scoparia); [13]) | Plant response rating, Kochia (kochia (Kochia scoparia); [14]) | Plant response rating, Kochia (kochia (Kochia scoparia); [15]) | Plant response rating, Nutsedge, Yellow [4, 13] | Plant response rating, Nutsedge, Yellow [4, 14] | Plant response rating, Nutsedge, Yellow [4, 18] | Plant response rating, Nutsedge, Yellow [4, 19] | Plant response rating, Pigweed [5, 13] | Plant response rating, Pigweed [5, 14] | Plant response rating, Pigweed [5, 17] | Plant response rating, Pigweed [5, 18] | Plant response rating, Sunflower [7, 21] | Plant response rating, Sunflower ([7]; 62 g ai/ha, scale 0 to 100) | Plant response rating, Sunflower ([7]; 125 g ai/ha, scale 0 to 100) | Plant response rating, Sunflower ([7]; 250 g ai/ha, scale 0 to 100) | Plant response rating, Ragweed [8, 13] | Plant response rating, Ragweed [8, 14] | Plant response rating, Ragweed [8, 17] | Plant response rating, Ragweed [8, 18] | Plant response rating, Ragweed [8, 19] | Plant response rating, Johnsongrass [10, 13] | Plant response rating, Johnsongrass [10, 14] | Plant response rating, Johnsongrass [10, 17] | Plant response rating, Nightshade, E. B. ([11]; 62 g ai/ha, scale 0 to 100)
50: Plant response rating, Kochia (kochia (Kochia scoparia); [18]) | Plant response rating, Kochia (kochia (Kochia scoparia); [19])
